In ChEMBL document CHEMBL1156898, “Synthesis, photophysical properties and photocytotoxicity of mono-, di-, tri- and tetra-glucosylated fluorophenylporphyrins” (Bioorg Med Chem, 2010):
Activity calls are given as the source filed them. No cut-off for these calls is given here.

How the values were obtained:
HeLa [1] = assay: Cytotoxicity against human HeLa cells assessed as cell survival in dark at 100 nM after 24 hrs by WST8 assay; type: functional, cell-based
HeLa [2] = assay: Phototoxicity against human HeLa cells irradiated with 16Jcm'-2 from halogen lamp assessed as cell survival at 100 nM after 24 hrs by WST8 assay; type: functional, cell-based; details: light or radiation study
[3] = Lipophilicity, log P of the compound; type: physicochemical; details: octanol/water
HeLa [4] = assay: Drug uptake in human HeLa cells at 80 nM after 24 hrs relative to TPPS; type: ADME, cell-based; details: 0.08 µM
HeLa [5] = assay: Phototoxicity in human HeLa cells assessed as induction of cell shrinkage at 500 nM after 3 hrs using DAPI staining by confocal laser scanning microscopy; type: functional, cell-based
HeLa [6] = assay: Phototoxicity in human HeLa cells assessed as induction of apoptotic bodies at 500 nM after 3 hrs using DAPI staining by confocal laser scanning microscopy; type: functional, cell-based

| Structure (SMILES) | logP [3] | Activity (HeLa [4]) | Activity (HeLa [1]) | % survival (HeLa [2]) [%] | Activity (HeLa [5]) | Activity (HeLa [6]) |
| --- | --- | --- | --- | --- | --- | --- |
| OC[C@H]1O[C@@H](Sc2c(F)c(F)c(-c3c4nc(c(-c5c(F)c(F)c(S[C@@H]6O[C@H](CO)[C@@H](O)[C@H](O)[C@H]6O)c(F)c5F)c5ccc([nH]5)c(-c5c(F)c(F)c(S[C@@H]6O[C@H](CO)[C@@H](O)[C@H](O)[C@H]6O)c(F)c5F)c5nc(c(-c6c(F)c(F)c(F)c(F)c6F)c6ccc3[nH]6)C=C5)C=C4)c(F)c2F)[C@H](O)[C@@H](O)[C@@H]1O | 2.99 | Active | Not toxic | 80 |  |  |
| OC[C@H]1O[C@@H](Sc2c(F)c(F)c(-c3c4nc(c(-c5c(F)c(F)c(S[C@@H]6O[C@H](CO)[C@@H](O)[C@H](O)[C@H]6O)c(F)c5F)c5ccc([nH]5)c(-c5c(F)c(F)c(S[C@@H]6O[C@H](CO)[C@@H](O)[C@H](O)[C@H]6O)c(F)c5F)c5nc(c(-c6c(F)c(F)c(S[C@@H]7O[C@H](CO)[C@@H](O)[C@H](O)[C@H]7O)c(F)c6F)c6ccc3[nH]6)C=C5)C=C4)c(F)c2F)[C@H](O)[C@@H](O)[C@@H]1O | 0.75 | Active | Not toxic | 90 |  |  |
| OC[C@H]1O[C@@H](Sc2c(F)c(F)c(-c3c4nc(c(-c5c(F)c(F)c(S[C@@H]6O[C@H](CO)[C@@H](O)[C@H](O)[C@H]6O)c(F)c5F)c5ccc([nH]5)c(-c5c(F)c(F)c(F)c(F)c5F)c5nc(c(-c6c(F)c(F)c(F)c(F)c6F)c6ccc3[nH]6)C=C5)C=C4)c(F)c2F)[C@H](O)[C@@H](O)[C@@H]1O | 3.98 | Active | Not toxic | 90 |  |  |

The next lines start with results.

| logP [3] | Activity (HeLa [4]) | Structure (SMILES) | Activity (HeLa [1]) | % survival (HeLa [2]) [%] | Activity (HeLa [5]) | Activity (HeLa [6]) |
| --- | --- | --- | --- | --- | --- | --- |
| 5.11 | Active | OC[C@H]1O[C@@H](Sc2c(F)c(F)c(-c3c4nc(c(-c5c(F)c(F)c(F)c(F)c5F)c5ccc([nH]5)c(-c5c(F)c(F)c(F)c(F)c5F)c5nc(c(-c6c(F)c(F)c(F)c(F)c6F)c6ccc3[nH]6)C=C5)C=C4)c(F)c2F)[C@H](O)[C@@H](O)[C@@H]1O | Not toxic | 90 |  |  |
| 3.53 | Active | OC[C@H]1O[C@@H](Sc2c(F)c(F)c(-c3c4nc(c(-c5c(F)c(F)c(F)c(F)c5F)c5ccc([nH]5)c(-c5c(F)c(F)c(S[C@@H]6O[C@H](CO)[C@@H](O)[C@H](O)[C@H]6O)c(F)c5F)c5nc(c(-c6c(F)c(F)c(F)c(F)c6F)c6ccc3[nH]6)C=C5)C=C4)c(F)c2F)[C@H](O)[C@@H](O)[C@@H]1O | Not toxic | < 5 | Active | Active |
